The results in this text go back to PubChem BioAssay (NCI).

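96-well plates; 48 h exposure; 5 concentrations. Endpoints by linear interpolation between flanking doses. Not reached: highest tested concentration assigned. At the GI50, growth is halved. TGI marks complete inhibition of growth.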

Some test systems named below: RXF 393 renal; A498 renal; IGROV1 ovarian; 786-0 renal; TK-10 renal; SK-MEL-28 melanoma; OVCAR-8 ovarian; OVCAR-4 ovarian; HCT-15 colon.
Holding throughout (experiment): NCI tumour cell line growth inhibition, 48 h

As to `N/C(=C\c1ccc(OCc2ccccc2)c(OCc2ccccc2)c1[N+](=O)[O-])C(=O)O`, the TGI in the assay with RXF 393 renal, in the assay with A498 renal, in the assay with IGROV1 ovarian, with 786-0 renal, with TK-10 renal and in the assay on SK-MEL-28 melanoma was > 100 µM throughout. In the assay on OVCAR-8 ovarian, the TGI is > 100 µM.
In the case of `Cc1ccccc1C(=O)c1ccccc1O`, the TGI in the assay on RXF 393 renal, in the assay on A498 renal, with OVCAR-4 ovarian, with IGROV1 ovarian, in the assay with 786-0 renal and in the assay with HCT-15 colon was > 100 µM in each case. Further, the TGI in the assay with TK-10 renal, in the assay on SK-MEL-28 melanoma and with OVCAR-8 ovarian was > 100 µM throughout.
As for `CCC1(c2c(F)c(F)c(N)c(F)c2F)CCC(=O)NC1=O` (stereo not drawn), the TGI with A498 renal, in the assay on OVCAR-4 ovarian, in the assay with IGROV1 ovarian, in the assay on 786-0 renal, with HCT-15 colon and in the assay on TK-10 renal was > 100 µM throughout. For the same compound, the TGI with SK-MEL-28 melanoma and in the assay on OVCAR-8 ovarian was > 100 µM each time.
Turning to `C[S+](C)CCOC(=O)C(=[N+]=[N-])c1ccc([N+](=O)[O-])cc1`, the TGI with RXF 393 renal, with A498 renal, in the assay with OVCAR-4 ovarian, in the assay on IGROV1 ovarian, with 786-0 renal and with HCT-15 colon was > 100 µM in each case. In addition, the TGI in the assay with TK-10 renal and with OVCAR-8 ovarian was > 100 µM throughout.
`CC1(CO)OC(n2cc(C(=O)NC(=O)OCc3ccccc3)c(=O)[nH]c2=O)CC1O` (stereo not drawn): the TGI with A498 renal, with IGROV1 ovarian, with 786-0 renal, in the assay on HCT-15 colon, in the assay on TK-10 renal and with SK-MEL-28 melanoma was > 100 µM throughout. The TGI with OVCAR-8 ovarian is > 100 µM.
`N#Cc1c(NN)nc(NN)c(C#N)c1-c1ccccc1`: the TGI in the assay on RXF 393 renal, in the assay on A498 renal, in the assay on OVCAR-4 ovarian, in the assay with IGROV1 ovarian, in the assay with 786-0 renal and in the assay on HCT-15 colon was > 100 µM throughout. For the same compound, the TGI in the assay with TK-10 renal, with SK-MEL-28 melanoma and in the assay on OVCAR-8 ovarian was > 100 µM throughout.
Regarding `CCCCCCCCCCCCCC(=O)CC(=O)c1c(O)cccc1O`, the TGI in the assay on RXF 393 renal was > 100 µM; with A498 renal, > 100 µM; in the assay with OVCAR-4 ovarian, > 100 µM; in the assay on IGROV1 ovarian it was > 100 µM; in the assay on 786-0 renal, > 100 µM; in the assay with HCT-15 colon, 58.8 µM. The TGI with TK-10 renal, in the assay with SK-MEL-28 melanoma and in the assay on OVCAR-8 ovarian was > 100 µM each time.
Consider `Cn1c(=O)nc2n(-c3cccc(Br)c3)c3ccccc3nc-2c1=O`, for which the TGI in the assay on RXF 393 renal was 24 µM; with A498 renal, 22.1 µM; with OVCAR-4 ovarian, 14.6 µM; with IGROV1 ovarian, 23.7 µM; in the assay with 786-0 renal, 16.7 µM; with HCT-15 colon it was 15.1 µM. For the same compound, the TGI in the assay on TK-10 renal stood at 24.1 µM; in the assay with OVCAR-8 ovarian it was 25.4 µM.
In the case of `CC1(c2cccc3ccccc23)OC(=O)c2ccccc21` (stereo not drawn), the TGI in the assay with RXF 393 renal was 46.1 µM; with A498 renal, 68.3 µM; in the assay with OVCAR-4 ovarian, > 100 µM; in the assay on IGROV1 ovarian, 55.3 µM; in the assay on 786-0 renal, 71.3 µM; in the assay with HCT-15 colon it was 63.7 µM. The TGI was > 100 µM with TK-10 renal, 75.8 µM in the assay with SK-MEL-28 melanoma and > 100 µM in the assay on OVCAR-8 ovarian.
Consider `COC(=O)C(=O)OC1(C(C)=O)CC2(c3ccccc3)OC1(c1ccccc1)c1ccccc12` (stereo not drawn), for which the TGI was 29 µM in the assay on RXF 393 renal; 33.4 µM in the assay on A498 renal; 51.1 µM in the assay on OVCAR-4 ovarian; 41.4 µM in the assay on IGROV1 ovarian; 26.9 µM in the assay on 786-0 renal; 34.1 µM in the assay with HCT-15 colon. Further, the TGI turned out to be 70.6 µM in the assay on TK-10 renal and 30.3 µM in the assay on OVCAR-8 ovarian.
As for `C#CCC(Cc1cnc2nc(N)nc(N)c2n1)c1ccc(C(=O)N[C@@H](CCC(=O)O)C(=O)O)cc1` (stereo partly drawn), the GI50 in the assay with RXF 393 renal is < 0.01 µM; in the assay with A498 renal, > 100 µM; with OVCAR-4 ovarian, 0.975 µM; in the assay with IGROV1 ovarian it was < 0.01 µM; in the assay on 786-0 renal it was < 0.01 µM; with HCT-15 colon, < 0.01 µM. Also, the results for the GI50 with TK-10 renal, in the assay on SK-MEL-28 melanoma and in the assay on OVCAR-8 ovarian were < 0.01 µM, 0.0901 µM and < 0.01 µM, respectively. For the same compound, the TGI in the assay with RXF 393 renal, in the assay on A498 renal, with OVCAR-4 ovarian, in the assay on IGROV1 ovarian, with 786-0 renal and with HCT-15 colon was > 100 µM each time. Moreover, the TGI in the assay on TK-10 renal, in the assay on SK-MEL-28 melanoma and in the assay on OVCAR-8 ovarian was > 100 µM throughout.
With `Oc1ccccc1C=NCc1ccco1`, the TGI with RXF 393 renal, in the assay with A498 renal, in the assay with OVCAR-4 ovarian, with IGROV1 ovarian, in the assay with 786-0 renal and with TK-10 renal was > 100 µM throughout. The TGI in the assay with SK-MEL-28 melanoma and in the assay with OVCAR-8 ovarian was > 100 µM in each case.
As to `O=C(CC1(O)C(=O)Nc2c(Cl)ccc(Cl)c21)c1ccc2ccccc2c1` (stereo not drawn), the TGI in the assay with RXF 393 renal was found to be 27 µM; in the assay with A498 renal, 34.7 µM; with OVCAR-4 ovarian, 5.92 µM; in the assay on IGROV1 ovarian, 41.4 µM; in the assay on 786-0 renal, 22.4 µM; in the assay on HCT-15 colon, 27 µM. Besides, the TGI in the assay with TK-10 renal worked out at 44.4 µM; in the assay on SK-MEL-28 melanoma it was 32.6 µM; with OVCAR-8 ovarian, 38.3 µM.
`CCOc1ccccc1NC(=O)CC1SC(=Nc2ccc([N+](=O)[O-])cc2)NC1=O` (stereo not drawn): the TGI with RXF 393 renal was found to be 39.7 µM; in the assay on OVCAR-4 ovarian it was 29.8 µM; in the assay with IGROV1 ovarian, 61.4 µM; in the assay with 786-0 renal, 33.5 µM; in the assay with TK-10 renal, 70.2 µM; in the assay with SK-MEL-28 melanoma, 70 µM. In the assay on OVCAR-8 ovarian, this compound had a TGI of 51.4 µM.
On to `O=C1NC(=O)C2C(=O)NC(=O)C1C2(c1ccccc1)c1cc[nH]c1` (stereo not drawn), for which the TGI with RXF 393 renal, in the assay on A498 renal, with OVCAR-4 ovarian, with IGROV1 ovarian, in the assay with 786-0 renal and in the assay with HCT-15 colon was > 100 µM each time. In addition, the TGI in the assay on TK-10 renal, in the assay with SK-MEL-28 melanoma and in the assay on OVCAR-8 ovarian was > 100 µM in each case.
